pKi: −log10 of the molar value.
biological target: benzodiazepine site of the GABAA receptor; test: Ligand binding assay of Example 6 (3H-Ro15-1788 competition, purified rat cortical membranes); conditions: ligand binding assay of Example 6; Table 5 Ki

pKi, > 6.00:
CCc1c(Cn2ccnc2-c2ncccc2F)ncn2ncnc12 [Compound 234, 8-ethyl-7-{[2-(3-fluoropyridin-2-yl)-1H-imidazol-1-yl]methyl}[1,2,4]triazolo[1,5-c]pyrimidine]
CCCc1c(Cn2ccnc2-c2cccc(C#N)n2)ncn2nc(C)nc12 [Compound 262, 6-{1-[(2-methyl-8-propyl[1,2,4]triazolo[1,5-c]pyrimidin-7-yl]methyl]-1H-imidazol-2-yl}pyridine-2-carbonitrile]
CCc1nc2c(CC)c(Cn3ccnc3-c3cc(F)ccc3C)ncn2n1 [Compound 219, 2,8-Diethyl-7-[2-(5-fluoro-2-methyl-phenyl)-imidazol-1-ylmethyl]-[1,2,4]triazolo[1,5-c]pyrimidine]
CCCc1c(Cn2ccnc2-c2ncccc2F)ncn2nc(N(CCC)CCC)nc12 [Compound 259, 7-{[2-(3-fluoropyridin-2-yl)-1H-imidazol-1-yl]methyl}-N,N,8-tripropyl[1,2,4]triazolo[1,5-c]pyrimidin-2-amine]
CCCc1c(Cn2ccnc2-c2ncccc2F)ncn2nc(CC(F)(F)F)nc12 [Compound 257, 7-{[2-(3-fluoropyridin-2-yl)-1H-imidazol-1-yl]methyl}-8-propyl-2-(2,2,2-trifluoroethyl)[1,2,4]triazolo[1,5-c]pyrimidine]
CCCc1c(Cn2ccnc2-c2ncccc2F)ncn2nc(C(C)(C)O)nc12 [Compound 249, 2-(7-{[2-(3-fluoropyridin-2-yl)-1H-imidazol-1-yl]methyl}-8-propyl[1,2,4]triazolo[1,5-c]pyrimidin-2-yl)propan-2-ol]
CCCc1c(Cn2ccnc2-c2cccc(C#N)n2)ncn2nc(COC(C)C)nc12 [Compound 264, 6-(1-{[2-(isopropoxymethyl)-8-propyl[1,2,4]triazolo[1,5-c]pyrimidin-7-yl]methyl}-1H-imidazol-2-yl)pyridine-2-carbonitrile]
Cc1nc2c(CCCF)c(Cn3ccnc3-c3ncccc3F)ncn2n1 [Compound 232, 8-(3-Fluoro-propyl)-7-[2-(3-fluoro-pyridin-2-yl)-imidazol-1-ylmethyl]-2-methyl-[1,2,4]triazolo[1,5-c]pyrimidine]
CCCc1c(Cn2ccnc2-c2ncccc2F)ncn2nc(-c3cccnc3)nc12 [Compound 225, 7-[2-(3-Fluoro-pyridin-2-yl)-imidazol-1-ylmethyl]-8-propyl-2-pyridin-3-yl-[1,2,4]triazolo[1,5-c]pyrimidine]
Cc1nc2c(CCCCl)c(Cn3ccnc3-c3ncccc3F)ncn2n1 [Compound 230, 8-(3-Chloro-propyl)-7-[2-(3-fluoro-pyridin-2-yl)-imidazol-1-ylmethyl]-2-methyl-[1,2,4]triazolo[1,5-c]pyrimidine]
CCCc1c(Cn2ccnc2-c2cccc(C#N)n2)ncn2nc(COC)nc12 [Compound 253, 6-(1-{[2-(methoxymethyl)-8-propyl[1,2,4]triazolo[1,5-c]pyrimidin-7-yl]methyl}-1H-imidazol-2-yl)pyridine-2-carbonitrile]
CCCc1c(Cn2ccnc2-c2cccc(C(F)(F)F)n2)ncn2ncnc12 [Compound 235, 8-Propyl-7-[2-(6-trifluoromethyl-pyridin-2-yl)-imidazol-1-ylmethyl]-[1,2,4]triazolo[1,5-c]pyrimidine]
Cc1nc2c(CCOCc3ccccc3)c(Cn3ccnc3-c3ncccc3F)ncn2n1 [Compound 227, 8-(2-Benzyloxy-ethyl)-7-[2-(3-fluoro-pyridin-2-yl)-imidazol-1-ylmethyl]-2-methyl-[1,2,4]triazolo[1,5-c]pyrimidine]
CCC(O)c1c(Cn2ccnc2-c2cccc(F)n2)ncn2nc(C)nc12 (stereo not shown) [Compound 221, 1-{7-[2-(6-Fluoro-pyridin-2-yl)-imidazol-1-ylmethyl]-2-methyl-[1,2,4]triazolo[1,5-c]pyrimidin-8-yl}-propan-1-ol]
CCCc1c(Cn2ccnc2-c2ncccc2F)ncn2nc(OCC)nc12 [Compound 247, 2-ethoxy-7-{[2-(3-fluoropyridin-2-yl)-1H-imidazol-1-yl]methyl}-8-propyl[1,2,4]triazolo[1,5-c]pyrimidine]
CCOc1c(Cn2ccnc2-c2ncccc2F)ncn2ncnc12 [Compound 245, 8-ethoxy-7-{[2-(3-fluoropyridin-2-yl)-1H-imidazol-1-yl]methyl}[1,2,4]triazolo[1,5-c]pyrimidine]
CCOc1c(Cn2ccnc2-c2ncccc2F)ncn2nc(C)nc12 [Compound 243, 8-Ethoxy-7-[2-(3-fluoro-pyridin-2-yl)-imidazol-1-ylmethyl]-2-methyl-[1,2,4]triazolo[1,5-c]pyrimidine]
CCCc1c(Cn2cc(Cl)nc2-c2ncccc2F)ncn2ncnc12 [Compound 241, 7-[4-Chloro-2-(3-fluoro-pyridin-2-yl)-imidazol-1-ylmethyl]-8-propyl-[1,2,4]triazolo[1,5-c]pyrimidine]
CCCc1c(Cn2ccnc2-c2cccc(F)n2)nc(C)n2nc(C)nc12 [Compound 217, 7-[2-(6-Fluoro-pyridin-2-yl)-imidazol-1-ylmethyl]-2,5-dimethyl-8-propyl-[1,2,4]triazolo[1,5-c]pyrimidine]
CCCc1c(Cn2ccnc2-c2ncccc2F)ncn2nc(COC3CCCC3)nc12 [Compound 265, 2-[(cyclopentyloxy)methyl]-7-{[2-(3-fluoropyridin-2-yl)-1H-imidazol-1-yl]methyl}-8-propyl[1,2,4]triazolo[1,5-c]pyrimidine]
CCCc1c(Cn2ccnc2-c2ncccc2F)ncn2nc(-c3nccs3)nc12 [Compound 258, 7-{[2-(3-fluoropyridin-2-yl)-1H-imidazol-1-yl]methyl}-8-propyl-2-(1,3-thiazol-2-yl)[1,2,4]triazolo[1,5-c]pyrimidine]
COCc1c(Cn2ccnc2-c2ncccc2F)ncn2nc(C)nc12 [Compound 220, 7-[2-(3-Fluoro-pyridin-2-yl)-imidazol-1-ylmethyl]-8-methoxymethyl-2-methyl-[1,2,4]triazolo[1,5-c]pyrimidine]
Cc1nc2c(CCCOCc3ccccc3)c(Cn3ccnc3-c3ncccc3F)ncn2n1 [Compound 226, 8-(3-Benzyloxy-propyl)-7-[2-(3-fluoro-pyridin-2-yl)-imidazol-1-ylmethyl]-2-methyl[1,2,4]triazolo[1,5-c]pyrimidine]
N#Cc1cccnc1-c1nccn1Cc1ncn2ncnc2c1CCCF [Compound 236, 2-{1-[8-(3-Fluoro-propyl)-[1,2,4]triazolo[1,5-c]pyrimidin-7-ylmethyl]-1H-imidazol-2-yl}-nicotinonitrile]
Cc1nc2c(CCO)c(Cn3ccnc3-c3ncccc3F)ncn2n1 [Compound 231, 2-{7-[2-(3-Fluoro-pyridin-2-yl)-imidazol-1-ylmethyl]-2-methyl-[1,2,4]triazolo[1,5-c]pyrimidin-8-yl}-ethanol]
CCCc1c(Cn2ccnc2-c2ncccc2F)ncn2nc(C#N)nc12 [Compound 240, 7-[2-(3-Fluoro-pyridin-2-yl)-imidazol-1-ylmethyl]-8-propyl-[1,2,4]triazolo[1,5-c]pyrimidine-2-carbonitrile]
CCCc1c(Cn2ccnc2-c2ncccc2F)ncn2nc(COCC(F)(F)F)nc12 [Compound 255, 7-{[2-(3-fluoropyridin-2-yl)-1H-imidazol-1-yl]methyl}-8-propyl-2-[(2,2,2-trifluoroethoxy)methyl][1,2,4]triazolo[1,5-c]pyrimidine]
CCCc1c(Cn2ccnc2-c2cccc(C#N)n2)ncn2nc(COCC)nc12 [Compound 260, 6-(1-{[2-(ethoxymethyl)-8-propyl[1,2,4]triazolo[1,5-c]pyrimidin-7-yl]methyl}-1H-imidazol-2-yl)pyridine-2-carbonitrile]
CCCc1c(Cn2ccnc2-c2ncccc2C#N)ncn2nc(C)nc12 [Compound 242, 2-[1-(2-methyl-8-propyl-[1,2,4]triazolo[1,5-c]pyrimidin-7-ylmethyl)-1H-imidazol-2-yl]-nicotinonitrile]
FCCCc1c(Cn2ccnc2-c2ncccc2F)ncn2ncnc12 [Compound 233, 8-(3-Fluoro-propyl)-7-[2-(3-fluoro-pyridin-2-yl)-imidazol-1-ylmethyl]-[1,2,4]triazolo[1,5-c]pyrimidine]
CCc1c(Cn2ccnc2-c2ncccc2F)ncn2nc(C)nc12 [Compound 244, 8-ethyl-7-{[2-(3-fluoropyridin-2-yl)-1H-imidazol-1-yl]methyl}-2-methyl[1,2,4]triazolo[1,5-c]pyrimidine]
C/C=C/c1c(Cn2ccnc2-c2ncccc2F)ncn2nc(C)nc12 [Compound 224, 7-[2-(3-Fluoro-pyridin-2-yl)-imidazol-1-ylmethyl]-2-methyl-8-propenyl-[1,2,4]triazolo[1,5-c]pyrimidine]
CCCc1c(Cn2ccnc2-c2ncccc2F)ncn2nc(COCC)nc12 [Compound 261, 2-(ethoxymethyl)-7-{[2-(3-fluoropyridin-2-yl)-1H-imidazol-1-yl]methyl}-8-propyl[1,2,4]triazolo[1,5-c]pyrimidine]
N#Cc1cccc(-c2nccn2Cc2ncn3ncnc3c2CCCF)n1 [Compound 237, 6-{1-[8-(3-Fluoro-propyl)-[1,2,4]triazolo[1,5-c]pyrimidin-7-ylmethyl]-1H-imidazol-2-yl}-pyridine-2-carbonitrile]
CCCc1c(Cn2ccnc2-c2ncccc2F)ncn2nc(Cl)nc12 [Compound 256, 2-chloro-7-{[2-(3-fluoropyridin-2-yl)-1H-imidazol-1-yl]methyl}-8-propyl[1,2,4]triazolo[1,5-c]pyrimidine]
CCCc1c(Cn2ccnc2-c2cccc(F)n2)nc(C)n2nc(CC)nc12 [Compound 218, 2-Ethyl-7-[2-(6-fluoro-pyridin-2-yl)-imidazol-1-ylmethyl]-5-methyl-8-propyl-[1,2,4]triazolo[1,5-c]pyrimidine]
CCC(O)c1c(Cn2ccnc2-c2ncccc2F)ncn2nc(C)nc12 (stereo not shown) [Compound 222, 1-{7-[2-(3-Fluoro-pyridin-2-yl)-imidazol-1-ylmethyl]-2-methyl-[1,2,4]triazolo[1,5-c]pyrimidin-8-yl}-propan-1-ol]

From patent publication US7271170B2, “Imidazo-pyrimidines and triazolo-pyrimidines: benzodiazepine receptor ligands” (Neurogen Corporation, priority 2003, dated 2007)
